Experimental data taken from US20120283174A1, “ANTIBIOFILM GLYCOPEPTIDES” (ORAL HEALTH AUSTRALIA PTY. LTD., priority 2009, published 2012).
Marks after values point to notes of the source that are not given here.

Tests used:
[1] = test system: S. mutans biofilms; experiment: Flow cell culture and CSLM analysis of 16 h S. mutans biofilms, single 10 min treatment; format: cell-based, Streptococcus mutans Ingbritt
Procedure: (§1) Flowcell culture and CSLM analysis of monospecific biofilm The biofilm culture of S. mutans in flow cells was similar to that described by Wen et al. (2006) with several modifications. A 3-channel flow cell system (Stovall Life Science, Greensboro, N.C., USA) was modified with stopcocks for inoculation, testing and staining of the bacterial biofilms. All parts were assembled and 0.5% sodium hypochlorite was pumped in and left overnight. Sterile water (200 mL) was then used to flush the system prior to the addition of growth medium. The system was inoculated with 1 mL of an exponentially growing S. mutans Ingbritt culture diluted to a cell density of 1×10^7 cells/mL. The system was incubated for 1 h prior to constant flow (0.2 mL/min) of 25% ASM (ASM; 2.5 g/L type II porcine gastric mucin, 2.0 g/L bacteriological peptone, 2.0 g/L tryptone, 1.0 g/L yeast extract, 0.35 g/L NaCl, 0.2 g/L KCl, 0.2 g/L CaCl2 and 1 mg/L haemin, pH 7.0) supplemented with 2.5 mM DTT and 0.5 g/L sucrose.. After 16 h, 1 mL of purified glycosylated x-casein(106-169) (KCG); KCGP(f106-169); KCGPZ(f106-169) (KCGPZ(f106-169); 10 mg/mL KCGP(f106-169) and 20 mM ZnCl2); 20 mM ZnCl2; 0.1% chlorhexidine digluconate or sterile water was injected into each channel of the system and incubated for 10 min, the flow of 25% ASM was then resumed for 10 min prior to staining. For determination of the effects of treatments on early stage biofilms the system was incubated for 6 h after inoculation, treated with 1 mL of test solutions for 10 min and the flow of 25% ASM resumed for another 16 h to observe recovery of the biofilm. BacLight LIVE/DEAD stain (Molecular Probes) was then used to stain the biofilm in situ.
(§2) Confocal laser scanning microscopy (CLSM) of the bacterial biofilms was carried out on a Meta 510 Confocal Microscope with an inverted stage (Zeiss). Horizontal (xy) optodigital sections, each 2 μm thick over the entire thickness of the biofilm (z) were imaged using a 63× objective at 512×512 pixel (0.28 μm per pixel), with each frame at 143.86 μm (x)×143.86 μm (y). To determine reproducibility across the biofilm 5 images at random positions were obtained at wavelengths of 488 nm and 568 nm for each channel and 3 biological replicates were used. All images obtained were analysed using Comstat software (Heydorn et al., 2000).
(§3) Data treatment and statistical analyses. The biometric data were analyzed using a two-factor analysis of variance (ANOVA) model with treatment included as a fixed factor and experiment as a random blocking factor to investigate the effect of KCGP(f106-169), KCG, KCGPZ(f106-169), Zinc and chlorhexidine on established biofilms. If treatment differences were significant, post hoc comparisons of treatment differences were performed using the Tukey posttest. Model fits were checked by residual plots, normality was investigated using normal probability plots and the Kolmogorov-Smirnov test and homogeneity of error variances was tested using Levene's test. When the error variances were heterogeneous a natural logarithm transformation of the data was used to stabilize the treatment group variances. Treatments were then compared using ANOVA on the transformed data. The biometric data obtained from the experiments investigating the effect of KCGPZ(f106-169) on 6 h S. mutans biofilms was analysed using a Paired Samples T-Test. All analyses were conducted using SPSS statistical software (version 17.0, SPSS Inc., Chicago, Ill.).

[2] = test system: S. sanguis cells grown as a biofilm; details: 0.2% w/v, 5 minute exposure, biofilm in a CDFF; cited from earlier work
[3] = test system: S. mutans biofilm; experiment: Early stage (6 h) S. mutans flow cell biofilms, 10 min treatment, 16 h recovery, CSLM; format: cell-based, Streptococcus mutans Ingbritt; parameters: key to Surface to biovolume ratio / Roughness coefficient (dimensionless, range: zero-infinity) / Biovolume / Average thickness: —: No significant amount of biofilms detected after 16 h recovery; details: 6 h biofilm
Procedure: as §1, §2, §3

[4] = 0.12% mouthwash, over a 12 week period; cited from earlier work
[5] = test system: six species oral biofilm; details: 0.2% w/v, 1 and 5 minutes of exposure; cited from earlier work
[6] = 0.1% (Table 1), 16 h biofilm, single 10 min treatment
[7] = 0.1%, 16 h biofilm, single 10 min treatment
[8] = 0.1%, 16 h biofilm, single 10 min treatment, listed as Chlorhexidine digluconate
[9] = 0.1% chlorhexidine digluconate, 10 min treatment

[H]/N=C(\N/C(=N/[H])NCCCCCCNC(=N)NC(=N)Nc1ccc(Cl)cc1)Nc1ccc(Cl)cc1 [Chlorhexidine, chlorhexidine digluconate]
reduction of average thickness [1, 6]: 59%
reduction of total biomass [1, 6]: 53%
Average thickness [1, 7]: 3.02 ± 0.66^a μm
Biovolume [1, 7]: 1.82 ± 0.60^a μm^3/μm^2
Roughness coefficient (dimensionless, range: zero-infinity) [1, 7]: 1.51 ± 0.12^a
Surface to biovolume ratio [1, 7]: 2.36 ± 1.24^ab μm^2/μm^3
Average thickness [1, 8]: Significant reduction
Biovolume [1, 8]: Significant reduction
Surface to biovolume ratio ([1]; 0.1%, 16 h biofilm, single 10 min treatment, listed as chlorhexidine): nonsignificant differences
dead S. mutans cells by propidium iodide staining (BacLight Live/Dead, FIG. 5) ([1]; 16 h biofilm after treatment, qualitative): qualitatively higher number of dead S. mutans cells compared with KCG or KCGPZ(f106-169)
disruption / inhibition of S. mutans biofilms, comparison between treatments in words ([1]; 16 h biofilm, single 10 min treatment, concentrations as in Table 1): not significantly different to those produced by ZnCl2, 2.4 mg/mL purified KCG or 10 mg/mL KCGP(f106-169)
reduction in viable S. sanguis cells [2]: ~2 log10
Average thickness [3, 9]: —^b
Biovolume [3, 9]: —^b
Roughness coefficient (dimensionless, range: zero-infinity) [3, 9]: —^b
Surface to biovolume ratio [3, 9]: —^b
effect on early S. mutans biofilms in words ([3]; single 10 min treatment): substantially reducing the biofilms, which had not recovered after 16 h
reduction of gingival inflammation [4]: 25%
reduction of plaque accumulation [4]: 28%
effect on six species oral biofilm [5]: no significant difference

[Cl-].[Cl-].[Zn+2] [ZnCl2]
Roughness coefficient (dimensionless, range: zero-infinity) ([1]; 20 mM, 16 h biofilm, single 10 min treatment): 1.54 ± 0.07^ab
